Measured values published in US8372874B2, “Compounds which selectively modulate the CB2 receptor” (Boehringer Ingelheim International GmbH, priority 2008, dated 2013).
Like-named read-outs stand apart in the source and are kept apart here.

Tests used:
[1] = target: T1, human CB2R (Homo sapiens, UniProt P34972); test: CB2R mediated modulation of cAMP synthesis; type: cell-based
T1 construct: host or cells: CHO cells
Protocol: B. CB2R Mediated Modulation of cAMP Synthesis:
Compounds of the invention are evaluated for their CB2 agonist or inverse agonistic activity in accordance with the following experimental method.
(§1) CHO cells expressing human CB2R (Euroscreen) are plated at a density of 5000 cells per well in 384 well plates and incubated overnight at 37° C. After removing the media, the cells are treated with test compounds diluted in stimulation buffer containing 1 mM IBMX, 0.25% BSA and 10 uM Forskolin. The assay is incubated for 30 minutes at 37° C. Cells are lysed and the cAMP concentration is measured using DiscoverX-XS cAMP kit, following the manufacturer's protocol. In this setting, agonists will decrease forskolin induced production of cAMP while inverse agonists will further increase forskolin induced production of cAMP. EC50 of agonists are calculated as follows. The maximal amount of cAMP produced by forskolin compared to the level of cAMP inhibited by 1 uM CP55940 is defined as 100%. […] Data is analyzed using a four-parameter logistic model. (Model 205 of XLfit 4.0).

[2] = target: T2, human CB1R (Homo sapiens, UniProt P21554); test: CB1R mediated modulation of cAMP synthesis; type: cell-based
T2 construct: host or cells: CHO cells
Protocol: C. CB1R Mediated Modulation of cAMP Synthesis:
Compounds of the invention are evaluated for their CB1 agonist or inverse agonistic activity in accordance with the following experimental method.
as §1, with “CB1R” for “CB2R”

[3] = CHO cells expressing human CB2R, inhibition of forskolin-stimulated cAMP synthesis, read-out: CB2 EC50
[4] = CHO cells expressing human CB1R, inhibition of forskolin-stimulated cAMP synthesis, read-out: CB1 EC50

T2 sequence (P21554 whole entry): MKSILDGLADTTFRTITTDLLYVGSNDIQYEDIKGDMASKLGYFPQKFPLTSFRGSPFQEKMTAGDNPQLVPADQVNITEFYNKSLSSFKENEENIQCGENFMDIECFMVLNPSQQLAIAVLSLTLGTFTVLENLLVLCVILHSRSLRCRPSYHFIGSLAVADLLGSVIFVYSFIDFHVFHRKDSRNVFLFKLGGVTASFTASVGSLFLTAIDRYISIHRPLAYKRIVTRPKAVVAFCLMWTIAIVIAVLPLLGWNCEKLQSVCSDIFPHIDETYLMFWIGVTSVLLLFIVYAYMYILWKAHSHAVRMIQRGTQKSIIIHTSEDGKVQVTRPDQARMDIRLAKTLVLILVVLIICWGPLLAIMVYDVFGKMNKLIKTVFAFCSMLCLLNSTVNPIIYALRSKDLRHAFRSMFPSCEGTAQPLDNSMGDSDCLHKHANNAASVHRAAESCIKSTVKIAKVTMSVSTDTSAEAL
T1 sequence (P34972 whole entry): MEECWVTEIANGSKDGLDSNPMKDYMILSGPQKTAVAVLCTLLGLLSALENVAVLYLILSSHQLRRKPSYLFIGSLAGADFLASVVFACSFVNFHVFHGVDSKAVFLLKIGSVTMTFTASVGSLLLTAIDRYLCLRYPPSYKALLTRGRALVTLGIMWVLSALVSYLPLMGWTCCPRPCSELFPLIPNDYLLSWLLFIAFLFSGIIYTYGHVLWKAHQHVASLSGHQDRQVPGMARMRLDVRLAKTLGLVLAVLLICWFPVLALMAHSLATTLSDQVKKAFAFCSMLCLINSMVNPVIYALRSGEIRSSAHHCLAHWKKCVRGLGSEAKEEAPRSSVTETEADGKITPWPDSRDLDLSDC

Compound	EC50 [1, 3]	EC50 [2, 4]	EC50 [1]	EC50 [2]
CC(C)(C(=O)Nc1cc(C2CCOCC2)no1)S(=O)(=O)CCCC(F)(F)F	368 nM	> 50000 nM	–	–
CC[C@@H](O)C(C)(C)c1cc(NC(=O)C(C)(C)S(=O)(=O)C2CCOCC2)on1	–	–	70 nM	> 50000 nM
COCCOC(C)(C)c1cc(NC(=O)C(C)(C)S(=O)(=O)C2CCOCC2)on1	–	–	96 nM	> 50000 nM
C[C@H](O)C(C)(C)c1cc(NC(=O)C(C)(C)S(=O)(=O)C2CCN(S(C)(=O)=O)CC2)on1	107 nM	> 50000 nM	–	–
CC(O)C(C)(C)c1cc(NC(=O)C(C)(C)S(=O)(=O)CCCC(F)(F)F)on1 (centres unmarked)	–	–	31 nM	> 20000 nM
CC(C)(COCCO)c1cc(NC(=O)C(C)(C)S(=O)(=O)CC2CCOCC2)on1	–	–	13 nM	> 50000 nM
CC(C)(C)C(=O)OCC(C)(C)c1cc(NC(=O)C(C)(C)S(=O)(=O)C2CCOCC2)on1	–	–	50 nM	> 50000 nM
C[C@H](OC1CCCOC1)C(C)(C)c1cc(NC(=O)C(C)(C)S(=O)(=O)C2CCOCC2)on1 (some centres unmarked)	–	–	2.8 nM	> 50000 nM
COCCOCC(C)(C)c1cc(NC(=O)C(C)(C)S(=O)(=O)C2CCOCC2)on1	–	–	2.1 nM	> 50000 nM
CC1(c2cc(NC(=O)C(C)(C)S(=O)(=O)C3CCOCC3)on2)CCCO1 (centres unmarked)	–	–	13 nM	> 50000 nM
C[C@H](O)C(C)(C)c1cc(NC(=O)C(C)(C)S(=O)(=O)c2ccc(F)cc2)on1	–	–	42 nM	> 50000 nM
CC(C)(COC(=O)c1ccccc1)c1cc(NC(=O)C(C)(C)S(=O)(=O)C2CCOCC2)on1	–	–	11 nM	> 50000 nM
C[C@H](O)C(C)(C)c1cc(NC(=O)C(C)(C)S(=O)(=O)CC2CCOCC2)no1	121 nM	> 50000 nM	–	–
COCCOCC(C)(C)c1cc(NC(=O)C(C)(C)S(=O)(=O)CC2CCOCC2)no1	–	–	15 nM	> 50000 nM
C[C@H](O)C(C)(C)c1cc(NC(=O)C(C)(C)S(=O)(=O)C2CCOCC2)on1	–	–	14 nM	> 50000 nM
CC(C)(C(=O)Nc1cc(C2CCOC2)no1)S(=O)(=O)CCCC(F)(F)F (centres unmarked)	172 nM	> 50000 nM	–	–
CC(O)C(C)(C)c1cc(NC(=O)C(C)(C)S(=O)(=O)C2CCOCC2)on1 (centres unmarked)	–	–	14 nM	> 50000 nM
CC(C)(C(=O)Nc1cc(C2(COC3CCCCO3)CCCC2)no1)S(=O)(=O)c1ccc(F)cc1 (centres unmarked)	–	–	5.3 nM	> 50000 nM
CC(=O)OCC(C)(C)c1cc(NC(=O)C(C)(C)S(=O)(=O)C2CCOCC2)on1	–	–	4.2 nM	> 50000 nM
COCCOCC(C)(C)c1cc(NC(=O)C(C)(C)S(=O)(=O)C2CCOCC2)no1	–	–	15 nM	> 50000 nM
CC(C)(COCCO)c1cc(NC(=O)C(C)(C)S(=O)(=O)C2CCOCC2)no1	–	–	2.4 nM	> 50000 nM
CO[C@@H](C)C(C)(C)c1cc(NC(=O)C(C)(C)S(=O)(=O)C2CCOCC2)no1	–	–	10.8 nM	> 50000 nM
COCCOCC(C)(C)c1cc(NC(=O)C(C)(C)S(=O)(=O)CCC(F)(F)F)on1	–	–	27 nM	> 50000 nM

Compound	EC50 [1, 3]	EC50 [2, 4]	EC50 [1]	EC50 [2]
C[C@@H](O)C(C)(C)c1cc(NC(=O)C(C)(C)S(=O)(=O)C2CCOCC2)on1	–	–	20 nM	> 50000 nM
COCCOCC(C)(C)c1cc(NC(=O)C(C)(C)S(=O)(=O)C[C@H]2CCOC2)on1	–	–	98 nM	> 50000 nM
COCCOCC1(c2cc(NC(=O)C(C)(C)S(=O)(=O)C3CCOCC3)on2)CCCCC1	–	–	59 nM	> 50000 nM
COCCOCC(C)(C)c1cc(NC(=O)C(C)(C)S(=O)(=O)C2CCN(S(C)(=O)=O)CC2)on1	–	–	11 nM	> 50000 nM
CC(C)(OCCO)c1cc(NC(=O)C(C)(C)S(=O)(=O)C2CCOCC2)on1	–	–	28 nM	> 50000 nM
CC(C)(C(=O)Nc1cc(C2(COC3CCCCO3)CCCCC2)no1)S(=O)(=O)C1CCOCC1 (centres unmarked)	–	–	22 nM	> 50000 nM
COc1ccc(COCC(C)(C)c2cc(NC(=O)C(C)(C)S(=O)(=O)CC3CCOCC3)on2)cc1	167 nM	> 20000 nM	–	–
CC(C)(O)C(C)(C)c1cc(NC(=O)C(C)(C)S(=O)(=O)C2CCOCC2)on1	116 nM	> 50000 nM	–	–
CC[C@H](C)S(=O)(=O)C(C)(C)C(=O)Nc1cc(C(C)(C)[C@H](C)O)no1	250 nM	> 50000 nM	–	–
CCn1nc(NC(=O)C(C)(C)S(=O)(=O)C2CCOCC2)nc1-c1ccc(OC)cc1	–	–	77 nM	> 500000 nM
CC[C@H](O)C(C)(C)c1cc(NC(=O)C(C)(C)S(=O)(=O)C2CCOCC2)on1	–	–	47 nM	> 50000 nM
CC(C)(C(=O)Nc1cc(C2CCCO2)no1)S(=O)(=O)C1CCOCC1 (centres unmarked)	101 nM	> 50000 nM	–	–
CCOCCOCC(C)(C)c1cc(NC(=O)C(C)(C)S(=O)(=O)C2CCOCC2)on1	–	–	1.5 nM	> 50000 nM
CC(C)(C(=O)Nc1cc(C2CCOCC2)no1)S(=O)(=O)C1CCOCC1	348 nM	> 50000 nM	–	–
CO[C@@H](C)C(C)(C)c1cc(NC(=O)C(C)(C)S(=O)(=O)CC2CCOCC2)no1	–	–	30 nM	> 50000 nM
CC(C)(C(=O)Nc1cc([C@@H]2CCCO2)no1)S(=O)(=O)C1CCOCC1	138 nM	> 50000 nM	–	–
CCC(O)C(C)(C)c1cc(NC(=O)C(C)(C)S(=O)(=O)C2CCOCC2)on1 (centres unmarked)	–	–	29 nM	> 50000 nM
CC(C)(COCCO)c1cc(NC(=O)C(C)(C)S(=O)(=O)C2CCN(S(C)(=O)=O)CC2)on1	–	–	10 nM	> 50000 nM
CCn1nc(NC(=O)C(C)(C)S(=O)(=O)C2CCOCC2)nc1-c1ccc(O)cc1	–	–	10 nM	> 20000 nM
CC(C)CCS(=O)(=O)C(C)(C)C(=O)Nc1cc(C2CCOCC2)no1	–	–	97 nM	> 20000 nM
C[C@H](O)C(C)(C)c1cc(NC(=O)C(C)(C)S(=O)(=O)CC[C@@H]2CCOC2)no1	–	–	15 nM	21000 nM
CC(C)C(O)C(C)(C)c1cc(NC(=O)C(C)(C)S(=O)(=O)C2CCOCC2)on1 (centres unmarked)	150 nM	> 50000 nM	–	–
C[C@H](O)C(C)(C)c1cc(NC(=O)C(C)(C)S(=O)(=O)C2CCOCC2)no1	–	–	25 nM	> 50000 nM
